Measured values reported in patent publication US20200281928A1, “VITAMIN B1 IN HIGH DOSES FOR USE IN THE MEDICAL TREATMENT OF MOTOR SYMPTOMS OF SOME SPORADIC NEURODEGENERATIVE DISEASES, OF GENETIC ORIGIN, AND OF CLUSTER HEADACHE AND OF MIGRAINE HEADACHE” (priority 2017, published 2020).
Like-named read-outs stand apart in the source and are kept apart here.

Key:
[1] = test system: Essential Tremor (also called intention tremor); details: for improvement of TETRAS ADL Subscale / improvement of TETRAS Performance subscale / TETRAS ADL Subscale score after treatment / TETRAS Performance subscale score after treatment: two 100-mg/ml vials intramuscularly per week, two months; for TETRAS ADL Subscale score after treatment: scale 0-48; for TETRAS Performance subscale score after treatment: scale 0-64
Procedure: Two patients were studied affected by such pathology, a person and a person. The intention tremor, differently from tremor in Parkinson disease appears and increases with muscular activity. The diagnosis was made by neurologists expert in the motion disorders based upon the clinical, neuroradiological and electrophysiological data.
Before starting the treatment, both patients were evaluated with a validated scale called TETRAS (TRG ESSENTIAL TREMOR RATING ASSESSMENT SCALE). They were re-evaluated with the same scale after two months of treatment with two 100-mg/ml vials of thiamine (vitamin B1) intramuscularly performed on Monday and on Thursday morning with the same scale.
In turn, this scale is constituted by two sub-scales. The first one, Activities of Daily Living Subscale (ADL Subscale) measures the impact the tremor has in the activities of daily life and it has a score ranging from 0 (no impact) to 48 (maximum impact).
The second one, Performance Subscale measures the width and the extension of tremor on the body and it has a score ranging from 0 (no tremor) to 64 (tremor with wide shocks and widespread).

[2] = test system: Cortico-Basal Degeneration; details: for Improvement of motor symptoms: UPDRS portion III, two months of therapy; for UPDRS portion III after therapy: three 100 mg/ml vials intramuscularly per week plus low doses of other group b vitamins and magnesium, two months, scale 0-56
Procedure: We treated two patients affected by such pathology, two men with three vials intramuscularly per week of vitamin B1. One vial included 100 mg/ml of thiamine. The injection was performed in the three odd or even midweek days. The dose was determined empirically based upon the disease progression rapidity.
Furthermore low doses of all other vitamins of the group b, including folic acid, 150 mg of magnesium citrate and 150 mg of magnesium malate, were associated to the treatment.
The patients were evaluated with UPDRS (Unified Parkinson's Disease Rating Scale), scale validated for all Parkinson forms. Herein the scores of third portion (portion III) of this scale will be shown, illustrating the motor problems found by the examiner. […] Both of them were evaluated before starting the treatment and two months after the treatment beginning.
(§1) The diagnoses were made by Italian primary neurological centres based upon anamnestic, clinical, evolutionary, neuroradiological and neurophysiological data.

Huntington's Chorea = details: one patient, two vials intramuscularly 100 mg/ml per week, two months
Procedure: We evaluated and treated one single patient. The disease is genetic and it has dominant transmission. The diagnosis was made in primary neurological centres based upon anamnestic, clinical and laboratory data. […] The first symptoms appeared about six years ago.
The patient, 56 years […], was evaluated with Unified Huntington's Disease Rating Scale (UHDRS). The scale consists of 31 items and ranges from 0 scores (absence of choreic motions) to 124 scores (maximum intensity and extension on the body of the involuntary motions of choreic type).
The first evaluation, before treatment was performed on Jun. 7, 2016, the second one, after two months of treatment with two vials intramuscularly 100 mg/ml per week was performed on Sep. 9, 2016.

[3] = test system: Sporadic spinocerebellar ataxia; details: for Improvement of motor symptoms: SARA, two months of therapy; for SARA scale after therapy: two vials of thiamine 100 mg/ml twice a week, two months, scale 0-40
Procedure: The diagnosis was made by exclusion, by excluding the genetic forms of spino cerebellar ataxia and the tumour secondary forms.
The patients were evaluated with SARA (Scale for Assessment and Rating of Ataxia), scale validated for all disorders of cerebellar type. The score of this scale ranges from 0 (absence of symptoms) to 40 (maximum deficit).
The diagnoses were made by Italian primary neurological centres based upon the anamnestic, clinical, evolutionary, neuroradiological and neurophysiological and molecular chemistry data.

[4] = test system: Multisystemic Atrophy (MSA) of Cerebellar Type (Type C); details: for Improvement of motor symptoms: SARA, two months of therapy; for SARA scale after therapy: five 100 mg/ml vials intramuscularly per week plus low doses of other group b vitamins and magnesium, two months, scale 0-40
Procedure: We treated three patients affected by such pathology with five vials intramuscularly per week of vitamin B1. A vial included 100 mg/ml of thiamine. The injection was performed every morning for the first five days of the week. The dose was determined empirically based upon the disease progression rapidity.
Moreover, low doses of all other vitamins of group b, including folic acid, 150 mg of magnesium citrate and 150 mg of magnesium malate, were associated to the treatment.
The patients were evaluated with SARA (Scale for Assessment and Rating of Ataxia), scale validated for all disorders of cerebellar type. The score of this scale ranges 0 (absence of symptoms) to 40 (maximum deficit).
as §1

[5] = test system: Progressive Supranuclear Paralysis; details: for Improvement of motor symptoms: UPDRS portion III, two months of therapy; for UPDRS portion III after therapy: five 100 mg/ml vials intramuscularly per week plus low doses of other group b vitamins and magnesium, two months, scale 0-56
Procedure: We treated […] affected by such pathology, two women and two men with five vials intramuscularly per week of vitamin B1. A vial included 100 mg/ml of thiamine. The injection was performed each morning for the first five days of the week. The dose was determined empirically based upon the disease progression rapidity. Furthermore, low doses of all other vitamins of the group b, including folic acid, 150 mg of magnesium citrate and 150 mg of magnesium malate, were associated to the treatment. The patients were evaluated with UPDRS (Unified Parkinson's Disease Rating Scale), scale validated for all Parkinson forms. Herein the scores of third portion (portion III) of this scale will be shown, illustrating the motor problems found by the examiner.
as §1

Dystonia 1 (DYT1) = details: for Fahn-Mardsen motion scale after treatment: scale 0-120; for Fahn-Mardsen disability scale after treatment: scale 0-30
Procedure: The studied patients were two, a person and a person, parent and child. The disease is genetic and has a transmission of dominant type. The diagnosis was made in primary neurological centres based upon anamnestic, clinical and laboratory data.
They were evaluated with Fahn-Mardsen scale of dystonia (Fahn-Mardsen Rating Scale). This scale consists of two sub-scales: 1) motion scale 2) disability scale. The first one ranges from 0 (no motion disorder) to 120 (maximum intensity and extension of the motion dystonic disorder). The second one ranges from 0 (no disability) to 30 (maximum disability)

[6] = patient P1, two months of treatment
[7] = patient P2, two months of treatment
[8] = patient P2, two months of treatment, before treatment 4

`Cc1ncc(C[n+]2csc(CCO)c2C)c(N)n1` [vitamin B1, thiamine] was tested, and the “improvement of TETRAS ADL Subscale” value ([1]; patient N1) was 75%, the “improvement of TETRAS Performance subscale” value ([1]; patient N1) was 74.4% and the “TETRAS ADL Subscale score after treatment” value ([1]; patient N1, before treatment 16) was 4 scores. For the same compound, the “TETRAS Performance subscale score after treatment” value ([1]; patient N1, before treatment 19.5) was 5 scores, the “improvement of TETRAS ADL Subscale” value ([1]; patient N2) was 65.3% and the “improvement of TETRAS Performance subscale” value ([1]; patient N2) was 68.2%. The “TETRAS Performance subscale score after treatment” value ([1]; patient N2, before treatment 22) was 7 scores, the “TETRAS ADL Subscale score after treatment” value ([1]; patient N2, before treatment 23) was 8 scores and the “alteration in the common laboratory examinations” value ([1]; two Essential Tremor patients, long-term treatment never suspended) was “nor any alteration in the common laboratory examinations”. The side effects ([1]; two Essential Tremor patients, long-term treatment never suspended (intramuscular vials or 4 grams each day orally)) was “no any side effect”, the “result with the equivalent dose orally” value ([1]; two Essential Tremor patients, 4 grams each day of vitamin B1 orally for some months instead of the vials) was “keeping the same results of the vials” and the “Improvement of motor symptoms” value ([2]; patient N1 (person five)) was 57.6%. The “UPDRS portion III after therapy” value ([2]; patient N1 (person five), before therapy 26) was 15 scores, the “Improvement of motor symptoms” value ([2]; patient N2 (person six)) was 15.3% and the “UPDRS portion III after therapy” value ([2]; patient N2 (person six), before therapy 35) was 31 scores. The “improvement of UHDRS” value (Huntington's Chorea) was 27.5%, the UHDRS after treatment (Huntington's Chorea; before treatment 62, scale 0-124) was 45 scores and the “Improvement of motor symptoms” value ([3]; patient N1 (person nine)) was 33.4%. The “SARA scale after therapy” value ([3]; patient N1 (person nine), before therapy 9) was 6 scores, the “Improvement of motor symptoms” value ([3]; patient N2 (person four)) was 50.0% and the “SARA scale after therapy” value ([3]; patient N2 (person four), before therapy 6) was 3 scores. For the same compound, the “Improvement of motor symptoms” value ([4]; patient N1 (person one)) was 14.3%, the “SARA scale after therapy” value ([4]; patient N1 (person one), before therapy 7) was 6 scores and the “Improvement of motor symptoms” value ([4]; patient N2 (person eight)) was 37.5%. For the same compound, the “SARA scale after therapy” value ([4]; patient N2 (person eight), before therapy 8) was 3 scores, the “Improvement of motor symptoms” value ([4]; patient N3) was 16.0% and the “SARA scale after therapy” value ([4]; patient N3, before therapy 25) was 21 scores. For the same compound, the “Improvement of motor symptoms” value ([5]; patient N1 (person two)) was 20.3%, the “UPDRS portion III after therapy” value ([5]; patient N1 (person two), before therapy 31) was 25 scores and the “Improvement of motor symptoms” value ([5]; patient N2 (person seven)) was 19.9%. For the same compound, the “UPDRS portion III after therapy” value ([5]; patient N2 (person seven), before therapy 37) was 30 scores, the “Improvement of motor symptoms” value ([5]; patient N3 (person twelve)) was 32.5% and the “UPDRS portion III after therapy” value ([5]; patient N3 (person twelve), before therapy 23) was 16 scores. The “Improvement of motor symptoms” value ([5]; patient N4) was 21.8%, the “UPDRS portion III after therapy” value ([5]; patient N4, before therapy 28) was 22 scores and the “Improvement of motor symptoms” value ([5]; patient N5) was 26.6%. The “UPDRS portion III after therapy” value ([5]; patient N5, before therapy 28) was 20 scores, the “improvement of disability scale” value (Dystonia 1 (DYT1); [6]) was 35.8% and the “improvement of motion scale” value (Dystonia 1 (DYT1); [6]) was 53.0%. The “Fahn-Mardsen motion scale after treatment” value (Dystonia 1 (DYT1); patient P1, two months of treatment (dose not given), before treatment 66) was 31 scores, the “Fahn-Mardsen disability scale after treatment” value (Dystonia 1 (DYT1); patient P1, two months of treatment, before treatment 14) was 9 scores and the “improvement of disability scale” value (Dystonia 1 (DYT1); [7]) was 50.0%. The “improvement of motion scale” value (Dystonia 1 (DYT1); [7]) was 50.0%, the “Fahn-Mardsen disability scale after treatment” value (Dystonia 1 (DYT1); [8]) was 2 scores and the “Fahn-Mardsen motion scale after treatment” value (Dystonia 1 (DYT1); [8]) was 2 scores.
